The text below walks through data of PubChem BioAssay (NCI).

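These data come from cells grown in 96-well plates and exposed to compound for 48 hours at five concentrations. TGI: total growth inhibition.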 A value given as a limit tells only on which side of the number the result lay.

Among the test systems are HCC-2998 colon; NCI-H460 lung; EKVX NSCLC; UO-31 renal; SN12C renal; NCI-H522 lung; NCI/ADR-RES ovarian; CAKI-1 renal; SK-MEL-28 melanoma; T-47D breast; OVCAR-5 ovarian; U251 CNS.
Holding throughout (assay): NCI-60 cell line screen, 48 h

Take `O=C1N[C@@H]2c3c(Br)sc(Br)c3C(=O)[C@@H]2O1`: the TGI with HCC-2998 colon was found to be 10.8 µM; in the test on NCI-H460 lung, 27.7 µM; with EKVX NSCLC it was 4.44 µM; in the test with UO-31 renal it was 24.8 µM; with SN12C renal, 8.1 µM; with NCI-H522 lung it was 1.53 µM. The TGI in the test on NCI/ADR-RES ovarian amounted to 18 µM; in the test on CAKI-1 renal, 2.37 µM; in the test on SK-MEL-28 melanoma, 6.64 µM; in the test with T-47D breast it was 27 µM; with OVCAR-5 ovarian, 27 µM; with U251 CNS, 6.1 µM.
With `COc1ccc(/C=C/C(=O)CC(=O)/C=C/c2ccc(OC)cc2)cc1`, the TGI with HCC-2998 colon was greater than 100 µM; with NCI-H460 lung, greater than 100 µM; with EKVX NSCLC, greater than 100 µM; in the test on UO-31 renal, greater than 100 µM; with SN12C renal, greater than 100 µM; with NCI-H522 lung it was 67 µM. Besides, the TGI with NCI/ADR-RES ovarian, in the test on CAKI-1 renal, with SK-MEL-28 melanoma, in the test on T-47D breast, in the test on OVCAR-5 ovarian and in the test on U251 CNS was greater than 100 µM each time.
As for `NC(Cc1ccc(S(=O)(=O)O)cc1)C(=O)NC(Cc1ccc(S(=O)(=O)O)cc1)C(=O)NC(Cc1ccc(S(=O)(=O)O)cc1)C(=O)O` (configuration not stated), the TGI with HCC-2998 colon, in the test with NCI-H460 lung, in the test with EKVX NSCLC, in the test with UO-31 renal, in the test on SN12C renal and in the test on NCI-H522 lung was greater than 100 µM each time. Moreover, the TGI in the test with NCI/ADR-RES ovarian, in the test on CAKI-1 renal, in the test with SK-MEL-28 melanoma, with T-47D breast, in the test with OVCAR-5 ovarian and in the test with U251 CNS was greater than 100 µM throughout.
Consider `CCOC(=O)c1nc2ccccc2nc1Oc1cc(OC)c(OC)c(OC)c1`, for which the TGI in the test on HCC-2998 colon, in the test on NCI-H460 lung, in the test on EKVX NSCLC, in the test with UO-31 renal, in the test with SN12C renal and in the test with NCI-H522 lung was greater than 100 µM each time. Besides, the TGI was greater than 100 µM in the test on NCI/ADR-RES ovarian; greater than 100 µM in the test with CAKI-1 renal; greater than 100 µM in the test on SK-MEL-28 melanoma; greater than 100 µM with T-47D breast; greater than 100 µM in the test on OVCAR-5 ovarian; 99.4 µM with U251 CNS.
Regarding `CCOc1ccc(N=NS(=O)(=O)O)cc1`, the TGI in the test with HCC-2998 colon, in the test on NCI-H460 lung, in the test on EKVX NSCLC, with UO-31 renal, in the test with SN12C renal and in the test on NCI-H522 lung was greater than 100 µM in each case. Moreover, the TGI in the test with NCI/ADR-RES ovarian, in the test on CAKI-1 renal, in the test on SK-MEL-28 melanoma, in the test with T-47D breast, in the test on OVCAR-5 ovarian and with U251 CNS was greater than 100 µM throughout.
As to `Cc1ccc(/C=C2\CCCC(CN(C)C)C2=O)cc1` (configuration not stated), the TGI is 27.4 µM in the test with HCC-2998 colon; 13.1 µM in the test with NCI-H460 lung; 31.5 µM in the test on EKVX NSCLC; 3.12 µM in the test on UO-31 renal; 3.91 µM in the test with SN12C renal; 1.98 µM in the test with NCI-H522 lung. The TGI in the test with NCI/ADR-RES ovarian was 17.1 µM; in the test on CAKI-1 renal, 2.88 µM; in the test with SK-MEL-28 melanoma, 3.9 µM; in the test with T-47D breast it was 3.25 µM; in the test on OVCAR-5 ovarian, 29.5 µM; in the test with U251 CNS, 26.4 µM.
For the compound `CC(C)C(C/C=C1/CC(CO)(COC(=O)c2ccccc2)OC1=O)C(C)C` (configuration not stated), the TGI in the test with HCC-2998 colon was 40.8 µM; in the test with NCI-H460 lung it was 45.7 µM; in the test with EKVX NSCLC, 35.9 µM; with UO-31 renal, 31.5 µM; in the test on SN12C renal, 29 µM; in the test on NCI-H522 lung it was 35 µM. Further, the TGI came out at 38.8 µM with NCI/ADR-RES ovarian; 27.8 µM with CAKI-1 renal; 27.8 µM with SK-MEL-28 melanoma; 31.2 µM with T-47D breast; 31.2 µM with OVCAR-5 ovarian; 36.1 µM in the test with U251 CNS.
As to `O=c1c2cc(I)ccc2nc(SCc2n[nH]c(=S)o2)n1Cc1ccccc1`, the TGI in the test with HCC-2998 colon turned out to be 35.3 µM; in the test with NCI-H460 lung it was 39.5 µM; with EKVX NSCLC, 40.8 µM; in the test with UO-31 renal, 3.43 µM; with SN12C renal, 27.6 µM; with NCI-H522 lung, 27.8 µM. For the same compound, the TGI came to 54.2 µM in the test on NCI/ADR-RES ovarian; 22.4 µM with CAKI-1 renal; 32.3 µM with SK-MEL-28 melanoma; 45.4 µM with T-47D breast; 52.4 µM with OVCAR-5 ovarian; 31.4 µM with U251 CNS.
`O=c1oc2ccc(Cl)cc2cc1-c1cn2ccccc2n1`: the TGI is greater than 100 µM in the test on HCC-2998 colon; greater than 62.5 µM in the test with NCI-H460 lung; greater than 100 µM in the test on EKVX NSCLC; 19.2 µM with UO-31 renal; 36.8 µM in the test with SN12C renal; greater than 100 µM in the test on NCI-H522 lung. The TGI with NCI/ADR-RES ovarian was greater than 77.4 µM; with CAKI-1 renal, 45.9 µM; in the test on SK-MEL-28 melanoma, greater than 100 µM; in the test with T-47D breast it was greater than 100 µM; with OVCAR-5 ovarian, greater than 100 µM; in the test on U251 CNS it was greater than 40.2 µM.
With `O=C(O)CN1CCN(CC(=O)N2CCN(C(=O)OCc3ccccc3)CC2)CCN(CC(=O)O)CCN(CC(=O)N2CCN(C(=O)OCc3ccccc3)CC2)CC1`, the TGI in the test with HCC-2998 colon, in the test on NCI-H460 lung, in the test with EKVX NSCLC, in the test on UO-31 renal, with SN12C renal and with NCI-H522 lung was greater than 100 µM throughout. The TGI with NCI/ADR-RES ovarian, in the test on CAKI-1 renal, in the test on SK-MEL-28 melanoma, in the test with T-47D breast, in the test with OVCAR-5 ovarian and with U251 CNS was greater than 100 µM throughout.
With `Cc1nc2ccc(NC3OC(CO)C(O)C(O)C3O)cc2c(=O)n1-c1ccccc1` (configuration not stated), the TGI in the test with HCC-2998 colon, in the test with NCI-H460 lung, in the test with EKVX NSCLC, in the test on UO-31 renal, with SN12C renal and in the test with NCI-H522 lung was greater than 100 µM in each case. Also, the TGI with NCI/ADR-RES ovarian, with CAKI-1 renal, with SK-MEL-28 melanoma, with T-47D breast, in the test with OVCAR-5 ovarian and with U251 CNS was greater than 100 µM throughout.
